This passage reports IC50 results from EP4644396A1 (Visionpharma (Nantong) Co., Ltd, priority 2022, dated 2024).

For one experiment, the target named is T1, human TLR7 (Homo sapiens, UniProt Q9NYK1).
T1 sequence (Q9NYK1 27-1049): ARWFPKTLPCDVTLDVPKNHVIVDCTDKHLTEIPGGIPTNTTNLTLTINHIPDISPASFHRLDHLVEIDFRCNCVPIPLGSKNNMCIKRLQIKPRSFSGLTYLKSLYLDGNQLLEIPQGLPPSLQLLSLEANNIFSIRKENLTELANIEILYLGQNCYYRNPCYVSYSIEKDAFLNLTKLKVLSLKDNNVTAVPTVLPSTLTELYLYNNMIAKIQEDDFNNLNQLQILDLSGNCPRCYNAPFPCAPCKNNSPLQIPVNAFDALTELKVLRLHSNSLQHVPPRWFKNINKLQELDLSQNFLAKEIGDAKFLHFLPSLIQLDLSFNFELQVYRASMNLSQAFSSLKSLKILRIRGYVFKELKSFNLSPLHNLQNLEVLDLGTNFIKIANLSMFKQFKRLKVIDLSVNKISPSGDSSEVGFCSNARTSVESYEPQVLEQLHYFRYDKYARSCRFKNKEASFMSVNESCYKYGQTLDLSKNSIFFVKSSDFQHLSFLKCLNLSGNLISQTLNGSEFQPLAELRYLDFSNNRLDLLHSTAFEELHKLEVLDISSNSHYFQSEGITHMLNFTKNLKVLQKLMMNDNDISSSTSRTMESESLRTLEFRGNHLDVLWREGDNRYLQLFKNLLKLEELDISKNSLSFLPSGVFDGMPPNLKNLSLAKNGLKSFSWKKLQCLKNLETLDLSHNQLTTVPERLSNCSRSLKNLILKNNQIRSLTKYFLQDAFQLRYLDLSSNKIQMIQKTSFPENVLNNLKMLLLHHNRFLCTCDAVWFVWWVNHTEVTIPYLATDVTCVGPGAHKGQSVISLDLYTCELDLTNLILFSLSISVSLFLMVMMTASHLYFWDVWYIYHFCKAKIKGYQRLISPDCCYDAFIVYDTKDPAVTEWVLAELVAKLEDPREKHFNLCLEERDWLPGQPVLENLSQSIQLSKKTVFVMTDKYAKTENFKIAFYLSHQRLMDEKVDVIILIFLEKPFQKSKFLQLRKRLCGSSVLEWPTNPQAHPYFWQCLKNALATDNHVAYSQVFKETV
Briefly: HEK-Blue hTLR7 SEAP reporter gene inhibition assay. The note with it: hTLR7 HEK-Blue cells, TLR7 ligand Gardiquimod 10 µM, 20 hours, SEAP by Quanti-blue; class symbols; read-out: HEK-Blue hTLR7 IC50. Format: cell-based. The protocol:
HEK-Blue cells with stable expression of human TLR7 or TLR8 were used in the evaluation of inhibitory activity of compounds in the present invention against TLR7 or TLR8, by using its ability to induce the SEAP reporting gene under the control of the fusion of IFN-β minimum promoters into five NF-κB and ap-1 binding sites, as follows: hTLR7 HEK-Blue cells (Invivogen, 80, 000 cells per well) or hTLR8 HEK-Blue cells (60, 000 cells per well) were added to a 96-well cell culture plate. A solution of the testing compounds were added to each well, with the final concentration of tested compounds in the medium ranged from 0.001 to 36 µM and the culture was incubated for 15 minutes. M5049 was used as positive controls in the testing.
Then a TLR7 ligand (Gardiquimod, purchased from MedChemExpress, with final concentration of ligand in cell culture medium kept at 10 µM) or a TLR8 ligand (purchased from MedChemExpress with final concentration in cell culture media at 10 µM) and the culture was incubated for 20 hours. According to the manufacturer's instructions, a HEK-Blue reagent Quanti-blue (Invivogen) was used to detect the SEAP levels in cell cultures. The half […] concentration or IC50 was calculated by using GraphPad Prism. […] Table 1: Activities of examples in this invention to hTLR7/8 in HEK-Blue Cells

In the next experiment the target is T2, human TLR8 (Homo sapiens, UniProt Q9NR97).
T2 construct: expressed in transfected cells
T2 sequence (Q9NR97 27-1041): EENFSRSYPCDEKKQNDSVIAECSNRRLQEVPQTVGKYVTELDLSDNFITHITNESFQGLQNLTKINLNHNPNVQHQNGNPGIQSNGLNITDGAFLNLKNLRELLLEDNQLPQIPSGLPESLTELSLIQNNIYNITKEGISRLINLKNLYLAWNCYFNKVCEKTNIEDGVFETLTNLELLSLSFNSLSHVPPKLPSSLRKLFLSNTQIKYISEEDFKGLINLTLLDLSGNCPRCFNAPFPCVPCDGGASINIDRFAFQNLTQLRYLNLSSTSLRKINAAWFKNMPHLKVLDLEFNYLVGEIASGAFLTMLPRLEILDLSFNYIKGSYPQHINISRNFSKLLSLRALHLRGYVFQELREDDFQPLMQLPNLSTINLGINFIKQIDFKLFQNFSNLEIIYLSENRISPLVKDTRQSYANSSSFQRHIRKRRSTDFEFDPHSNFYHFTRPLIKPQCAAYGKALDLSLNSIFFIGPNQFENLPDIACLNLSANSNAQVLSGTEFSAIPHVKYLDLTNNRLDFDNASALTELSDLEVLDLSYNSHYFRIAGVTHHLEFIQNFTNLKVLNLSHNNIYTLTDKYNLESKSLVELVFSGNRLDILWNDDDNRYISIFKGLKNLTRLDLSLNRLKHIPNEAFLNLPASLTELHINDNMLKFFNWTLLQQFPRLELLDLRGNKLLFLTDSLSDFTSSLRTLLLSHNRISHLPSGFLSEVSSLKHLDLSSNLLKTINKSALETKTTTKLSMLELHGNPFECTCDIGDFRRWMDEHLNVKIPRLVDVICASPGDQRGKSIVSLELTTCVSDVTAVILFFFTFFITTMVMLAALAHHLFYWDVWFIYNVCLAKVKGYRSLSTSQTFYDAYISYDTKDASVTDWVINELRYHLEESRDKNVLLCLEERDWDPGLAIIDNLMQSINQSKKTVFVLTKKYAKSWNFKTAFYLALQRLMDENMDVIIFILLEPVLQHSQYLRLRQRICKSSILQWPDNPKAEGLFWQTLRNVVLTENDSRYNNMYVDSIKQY
Briefly: HEK-Blue hTLR8 SEAP reporter gene inhibition assay. Format: cell-based. The note with it: hTLR8 HEK-Blue cells, TLR8 ligand 10 µM, 20 hours, SEAP by Quanti-blue; class symbols; read-out: HEK-Blue hTLR8 IC50. The method, boiled down: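 Compounds (final 0.001–36 µM) were added 15 min before stimulation with 10 µM TLR7 agonist Gardiquimod or 10 µM TLR8 ligand for 20 h. Read-out: SEAP from NF-κB/AP-1 reporter in hTLR7 (80,000 cells/well) or hTLR8 (60,000 cells/well) HEK-Blue cells, via Quanti-Blue; IC50 derived.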
(A reporter such as luciferase makes a cellular process visible.)

Molecules are shown by their SMILES.

Broadly, the IC50 is the concentration that gives 50% inhibition. With `C[C@@H]1CN(c2ccc(C#N)n3ncc(F)c23)Cc2c3c(nn21)CCNC3` [Example I-2, (R)-3-fluoro-4-(7-methyl-1,3,4,7,8,10-hexahydropyrido[4',3':3,4]pyrazolo[1,5-a]pyrazin-9(2H)-yl)pyrazolo[1,5-a]pyridine-7-carbonitrile], the half-maximal inhibitory concentration (IC50) on human TLR7 was < 50 nM; at human TLR8 it was < 100 nM.
Consider `C[C@@H]1CN(c2ccc(C#N)n3ncc(F)c23)Cc2c3c(nn21)CNCC3` [Example I-5, (R)-3-fluoro-4-(4-methyl-3,4,7,8,9,10-hexahydropyrido[3',4':3,4]pyrazolo[1,5-a]pyrazin-2(1H)-yl)pyrazolo[1,5-a]pyridine-7-carbonitrile], for which the results for the IC50 at human TLR7 and on human TLR8 were < 50 nM and < 100 nM, respectively.
For `CC1Cc2nn3c(c2CN1)CN(c1ccc(C#N)n2ncc(F)c12)C[C@H]3C` (stereo partly drawn) [Example I-11, 4-((7R)-3,7-dimethyl-1,3,4,7,8,10-hexahydropyrido[4',3':3,4]pyrazolo[1,5-a]pyrazin-9(2H)-yl)-3-fluoropyrazolo[1,5-a]pyridine-7-carbonitrile] the same measures were < 50 nM and < 100 nM.
As for `CC1CNCc2c1nn1c2CN(c2ccc(C#N)n3ncc(F)c23)C[C@H]1C` (stereo partly drawn) [Example I-12, 4-((7R)-4,7-dimethyl-1,3,4,7,8,10-hexahydropyrido[4',3':3,4]pyrazolo[1,5-a]pyrazin-9(2H)-yl)-3-fluoropyrazolo[1,5-a]pyridine-7-carbonitrile], the concentration for half-maximal inhibition (IC50) was < 50 nM on human TLR7 and < 100 nM at human TLR8.
As to `C[C@@H]1CN(c2ccc(C#N)n3ncc(F)c23)Cc2c3c(nn21)[C@@H](C)NCC3` [Example I-21, 4-((4R,7R)-4,7-dimethyl-3,4,7,8,9,10-hexahydropyrido[3',4':3,4]pyrazolo[1,5-a]pyrazin-2(1H)-yl)-3-fluoropyrazolo[1,5-a]pyridine-7-carbonitrile], the 50% inhibitory concentration (IC50) is < 50 nM at human TLR7 and < 100 nM on human TLR8.
For `C[C@@H]1CN(c2ccc(C#N)n3ncc(F)c23)Cc2c3c(nn21)CC(N(C)C)CC3` (stereo partly drawn) [Example I-27, 4-((4R)-8-(dimethylamino)-4-methyl-3,4,7,8,9,10-hexahydropyrazino[1,2-b]indazol-2(1H)-yl)-3-fluoropyrazolo[1,5-a]pyridine-7-carbonitrile] the same measures were > 50 nM and < 100 nM.
Regarding `C[C@@H]1CN(c2ccc(C#N)n3ncc(F)c23)Cc2c3c(nn21)CN(Cc1cn[nH]c1)CC3` [Example I-28, (R)-4-(8-((1H-pyrazol-4-yl)methyl)-4-methyl-3,4,7,8,9,10-hexahydropyrido[3',4':3,4]pyrazolo[1,5-a]pyrazin-2(1H)-yl)-3-fluoropyrazolo[1,5-a]pyridine-7-carbonitrile], the half-maximal inhibitory concentration (IC50) was > 50 nM on human TLR7 and < 100 nM at human TLR8.
The like results for `CC1Cc2c(nn3c2CN(c2ccc(C#N)n4ncc(F)c24)C[C@H]3C)CN1` (stereo partly drawn) [Example I-30, 4-((4R)-4,9-dimethyl-3,4,7,8,9,10-hexahydropyrido[3',4':3,4]pyrazolo[1,5-a]pyrazin-2(1H)-yl)-3-fluoropyrazolo[1,5-a]pyridine-7-carbonitrile] were, in that order, < 50 nM and < 100 nM.
For `C[C@@H]1CN(c2ccc(C#N)n3ncc(F)c23)Cc2c3c(nn21)CN[C@@H](C)C3` [Example I-30a] the same measures were < 50 nM and < 100 nM.
In the case of `C[C@@H]1Cc2c(nn3c2CN(c2ccc(C#N)n4ncc(F)c24)C[C@H]3C)CN1` [Example I-30b], the concentration for half-maximal inhibition (IC50) is < 50 nM at human TLR7 and < 100 nM at human TLR8.
For `C[C@@H]1CN(c2ccc(C#N)n3ncc(F)c23)Cc2c3c(nn21)C(CO)NCC3` (stereo partly drawn) [Example I-33, 3-Fluoro-4-((4R)-7-(hydroxymethyl)-4-methyl-3,4,7,8,9,10-hexahydropyrido[3',4':3,4]pyrazolo[1,5-a]pyrazin-2(1H)-yl)pyrazolo[1,5-a]pyridine-7-carbonitrile] the same measures were > 50 nM and < 100 nM.
